Consider one compound from PMC12362615, “Design, Synthesis, and Cellular Characterization of a New Class of IPMK Kinase Inhibitors” (Journal of Medicinal Chemistry, 2025).

The structures appear in SMILES notation. Where two headings read alike, the source gives them in different places.

Data set [1] deals with T1, purified recombinant human IP6K2 kinase domain (Homo sapiens, UniProt Q9UHH9).
T1 sequence (Q9UHH9 1-426): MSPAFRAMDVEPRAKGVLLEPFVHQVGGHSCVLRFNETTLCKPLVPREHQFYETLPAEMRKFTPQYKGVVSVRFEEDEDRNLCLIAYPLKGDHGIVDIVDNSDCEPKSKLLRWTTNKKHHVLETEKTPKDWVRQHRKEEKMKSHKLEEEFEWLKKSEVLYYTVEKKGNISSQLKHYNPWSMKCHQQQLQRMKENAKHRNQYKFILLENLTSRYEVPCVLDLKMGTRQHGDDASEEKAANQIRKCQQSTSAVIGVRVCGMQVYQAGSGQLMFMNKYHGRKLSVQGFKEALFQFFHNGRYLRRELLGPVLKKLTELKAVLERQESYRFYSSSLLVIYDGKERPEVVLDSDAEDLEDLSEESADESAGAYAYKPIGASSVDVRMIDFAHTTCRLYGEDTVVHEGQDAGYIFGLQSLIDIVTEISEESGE
The data set can be described thus: IP6K2 IC50 determination, malachite green Pi release assay. The class given is biochemical. How it is done: IP6K2 IC50 values were determined using the purified recombinant human IP6K2 kinase domain expressed in a 384-well clear polystyrene plate (VWR 82051-264). This human IP6K2 kinase domain (100 nM) was used at 37 °C in 50 μL reaction mixtures containing 5.0 μM human Dipp1, 50 mM Tris (pH 6.9), 10 mM MgCl2, 0.02% Triton X-100, 25 μM InsP6, and 50 μM ATP for 30 min. Pi release was determined with a malachite green colorimetric assay. Reactions were quenched by the addition of 12.5 μL of phosphate detection reagent (MAK3071KT, Sigma-Aldrich). Pi release was quantified from the absorbance at 620 nm by using appropriate standards.

In data set [2] the test system is purified recombinant human IPMK kinase domain. Description: IPMK IC50 determination, Kinase-Glo assay. Format: biochemical. Particulars: compared to compound 3. The text has this: (§1) These assay conditions were optimized with respect to reaction time, IPMK enzyme concentration, and IP3 concentration to determine the IC50 values for these ATP-competitive compounds.

Data set [3] concerns the target T2, purified recombinant human IPMK kinase domain (Homo sapiens, UniProt Q8NFU5).
T2 sequence (Q8NFU5 with tags, fused parts or gaps): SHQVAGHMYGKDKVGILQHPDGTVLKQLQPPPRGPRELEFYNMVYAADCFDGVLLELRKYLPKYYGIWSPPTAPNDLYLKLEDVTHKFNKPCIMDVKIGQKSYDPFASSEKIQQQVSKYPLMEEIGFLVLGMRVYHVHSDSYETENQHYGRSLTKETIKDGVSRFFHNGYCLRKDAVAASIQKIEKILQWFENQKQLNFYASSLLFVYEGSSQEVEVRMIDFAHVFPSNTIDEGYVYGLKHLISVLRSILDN
The data set can be described thus: IPMK IC50 determination, Kinase-Glo assay. Format: biochemical.
Excerpt: as §1
Background: Kinase-Glo reads ATP consumption through a luciferase reaction.

The next data set is described as follows: Solubility. Format: physicochemical.

The term IC50 denotes the concentration needed to halve the response being measured. As for `Cc1cc(C)cc(-c2onc3ccc(-c4nnn[nH]4)cc23)c1` [Compound 4, 3-(3,5-Dimethylphenyl)-5-(1H-tetrazol-5-yl)benzo[c]isoxazole], the IP6K2/IPMK in data set [1] (Table S1, ratio of IC50 values) worked out at 4.6. The IC50 in data set [1] (supplementary csv) was 113 ± 69.5 nM; in data set [3] (Kinase-Glo assay, 12.5 μM Ins(1,4,5)P3, 10 μM ATP, read-out: IC50 toward recombinant human IPMK), 25 ± 1.6 nM; in data set [3] (supplementary csv, read-out: IPMK IC50), 24.7 ± 1.6 nM. Also, the “improved potency toward IPMK compared to compound 3” value in data set [2] is 9 fold. In addition, the “solubility compared to compound 3” value in the data set “Solubility” is listed as “improved”.
